From ChEMBL document CHEMBL5576145, “Domoic Acid as a Lead for the Discovery of the First Selective Ligand for Kainate Receptor Subtype 5 (GluK5)” (J Med Chem, 2024)

Experiments:
[1] = target: T1, Glutamate receptor ionotropic, kainate 5 (Mus musculus, UniProt Q61626); experiment: Displacement of [3H]-kainate from mouse GluK5 expressed in Sf9 cell membrane incubated for 2 hrs by scintillation counting method; format: cell membranes
T1 sequence (Q61626 whole entry): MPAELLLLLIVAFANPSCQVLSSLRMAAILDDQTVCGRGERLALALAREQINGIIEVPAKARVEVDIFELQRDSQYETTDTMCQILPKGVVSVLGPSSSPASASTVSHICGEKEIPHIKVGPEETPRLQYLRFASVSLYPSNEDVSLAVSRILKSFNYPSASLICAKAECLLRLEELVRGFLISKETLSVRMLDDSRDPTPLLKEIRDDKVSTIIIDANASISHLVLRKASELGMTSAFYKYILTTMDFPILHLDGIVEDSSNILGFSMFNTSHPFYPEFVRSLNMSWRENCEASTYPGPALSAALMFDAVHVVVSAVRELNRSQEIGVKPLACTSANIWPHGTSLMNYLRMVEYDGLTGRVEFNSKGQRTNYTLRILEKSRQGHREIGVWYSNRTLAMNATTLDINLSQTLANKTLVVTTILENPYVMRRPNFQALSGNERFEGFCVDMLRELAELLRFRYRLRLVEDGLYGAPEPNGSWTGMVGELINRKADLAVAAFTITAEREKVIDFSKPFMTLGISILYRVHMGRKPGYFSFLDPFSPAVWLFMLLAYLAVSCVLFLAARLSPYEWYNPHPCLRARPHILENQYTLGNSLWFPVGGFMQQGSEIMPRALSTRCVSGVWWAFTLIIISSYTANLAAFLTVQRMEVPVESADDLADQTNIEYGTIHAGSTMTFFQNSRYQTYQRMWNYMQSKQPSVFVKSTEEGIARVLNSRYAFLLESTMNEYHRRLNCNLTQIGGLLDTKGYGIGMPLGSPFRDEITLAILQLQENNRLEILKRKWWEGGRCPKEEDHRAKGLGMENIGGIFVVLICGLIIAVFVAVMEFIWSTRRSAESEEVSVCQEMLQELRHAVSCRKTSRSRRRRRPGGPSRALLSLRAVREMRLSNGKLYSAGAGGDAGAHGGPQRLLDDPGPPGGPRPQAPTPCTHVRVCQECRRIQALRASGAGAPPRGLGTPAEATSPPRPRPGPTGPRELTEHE

[2] = target: Glutamate receptor ionotropic, kainate 1 (Rattus norvegicus, UniProt P22756); experiment: Displacement of [3H]-NF608 from rat GluK1
[3] = target: Glutamate receptor ionotropic, kainate 3 (Rattus norvegicus, UniProt P42264); experiment: Displacement of [3H]-KA from rat GluK3
[4] = target: Glutamate receptor ionotropic, kainate 2 (Rattus norvegicus, UniProt P42260); experiment: Displacement of [3H]-KA from rat GluK2
[5] = Displacement of [3H]-KA from KA in rat cortical synaptosomes incubated for 60 mins by TopCount microplate scintillation counting method; format: subcellular, Cortex, Synaptosome
[6] = target: Glutamate NMDA receptor (Rattus norvegicus) (UniProt P35439+Q00959+Q00960+Q00961+Q62645+Q8VHN2+Q9R1M7); experiment: Displacement of [3H]CGP39653 from NMDA receptor in rat cortical synaptosomes assessed as remaining activity at 10 uM incubated for 60 mins by Topcount microplate scintillation counting method relative to control; format: subcellular; conditions: Cortex, Synaptosome
[7] = target: Glutamate receptor 4 (Rattus norvegicus) (UniProt P19493); experiment: Displacement of [3H]-AMPA from AMPA in rat cortical synaptosomes assessed as remaining activity at 10 uM incubated for 30 mins by TopCount microplate scintillation counting method relative to control; format: subcellular; conditions: Cortex, Synaptosome
Glutamate receptor 4 [8] = target: T2, Glutamate receptor 4 (Rattus norvegicus, UniProt P19493); experiment: Displacement of [3H]-AMPA from AMPA in rat synaptic membrane; format: subcellular, Synaptosome
[9] = Displacement of [3H]-Kainic acid from KA in rat synaptic membrane; format: subcellular, Synaptosome
Glutamate receptor 4 [10] = target: T2, Glutamate receptor 4; experiment: Displacement of [3H]-AMPA from AMPA in rat brain membrane preincubated for 15 mins followed by [3H]-AMPA addition and measured after 40 mins by scintillation counting method; format: cell membranes
[11] = Displacement of [3H]-Kainic acid from KA in rat brain membrane preincubated for 15 mins followed by [3H]-Kainic acid addition and measured after 1 hr by scintillation counting method; format: cell membranes
[12] = target: Glutamate receptor ionotropic, kainate 3 (Rattus norvegicus) (UniProt P42264); experiment: Displacement of [3H]-KA from rat GluK3 assessed as percentage of radioligand binding at 10 uM relative to control
[13] = target: T3, Glutamate receptor ionotropic, kainate 5 (Mus musculus) (UniProt Q61626); experiment: Displacement of [3H]-kainate from mouse GluK5 expressed in Sf9 cell membrane assessed as remaining activity at 10 uM incubated for 2 hrs by scintillation counting method relative to control; format: cell membranes
T3 sequence (whole entry): T1 sequence (Q61626 whole entry)

[14] = target: Glutamate receptor ionotropic, kainate 1 (Rattus norvegicus) (UniProt P22756); experiment: Displacement of [3H]-NF608 from rat GluK1 assessed as percent of radioligand binding at 10 uM relative to control
[15] = target: Glutamate receptor ionotropic, kainate 2 (Rattus norvegicus) (UniProt P42260); experiment: Displacement of [3H]-KA from rat GluK2 assessed as percentage of radioligand binding at 10 uM relative to control
Rattus norvegicus = species on record: Rattus norvegicus; experiment: Displacement of [3H]-KA from KA in rat cortical synaptosomes assessed as remaining activity at 10 uM incubated for 60 mins by TopCount microplate scintillation counting method relative to control; format: subcellular; conditions: Cortex, Synaptosome

Glutamate receptor ionotropic, kainate 1 (Rattus norvegicus), sequence (P22756 whole entry): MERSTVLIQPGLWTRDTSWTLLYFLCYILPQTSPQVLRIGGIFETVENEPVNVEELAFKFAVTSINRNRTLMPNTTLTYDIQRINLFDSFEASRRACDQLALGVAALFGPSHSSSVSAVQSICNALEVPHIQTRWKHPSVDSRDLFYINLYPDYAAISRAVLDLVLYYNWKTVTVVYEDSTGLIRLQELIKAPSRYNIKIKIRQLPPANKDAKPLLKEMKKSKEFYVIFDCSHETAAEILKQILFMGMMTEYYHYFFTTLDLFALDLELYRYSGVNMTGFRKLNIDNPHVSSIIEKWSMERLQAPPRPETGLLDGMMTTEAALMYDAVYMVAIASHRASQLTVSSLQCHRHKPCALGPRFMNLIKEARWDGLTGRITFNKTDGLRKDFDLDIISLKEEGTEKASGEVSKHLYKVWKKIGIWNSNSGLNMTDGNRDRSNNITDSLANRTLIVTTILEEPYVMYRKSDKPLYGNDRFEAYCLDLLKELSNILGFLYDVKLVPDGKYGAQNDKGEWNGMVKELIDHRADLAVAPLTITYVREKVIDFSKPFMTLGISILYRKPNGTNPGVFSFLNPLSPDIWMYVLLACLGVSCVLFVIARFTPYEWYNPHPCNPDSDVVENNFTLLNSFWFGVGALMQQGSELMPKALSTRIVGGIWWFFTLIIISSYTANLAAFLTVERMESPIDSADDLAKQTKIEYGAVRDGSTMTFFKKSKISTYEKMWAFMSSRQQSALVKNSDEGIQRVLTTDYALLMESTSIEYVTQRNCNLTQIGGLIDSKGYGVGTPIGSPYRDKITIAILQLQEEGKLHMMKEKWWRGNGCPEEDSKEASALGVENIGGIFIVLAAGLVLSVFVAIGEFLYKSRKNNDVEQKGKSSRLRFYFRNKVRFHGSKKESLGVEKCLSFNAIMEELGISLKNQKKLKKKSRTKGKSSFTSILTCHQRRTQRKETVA
T2 sequence (P19493 whole entry): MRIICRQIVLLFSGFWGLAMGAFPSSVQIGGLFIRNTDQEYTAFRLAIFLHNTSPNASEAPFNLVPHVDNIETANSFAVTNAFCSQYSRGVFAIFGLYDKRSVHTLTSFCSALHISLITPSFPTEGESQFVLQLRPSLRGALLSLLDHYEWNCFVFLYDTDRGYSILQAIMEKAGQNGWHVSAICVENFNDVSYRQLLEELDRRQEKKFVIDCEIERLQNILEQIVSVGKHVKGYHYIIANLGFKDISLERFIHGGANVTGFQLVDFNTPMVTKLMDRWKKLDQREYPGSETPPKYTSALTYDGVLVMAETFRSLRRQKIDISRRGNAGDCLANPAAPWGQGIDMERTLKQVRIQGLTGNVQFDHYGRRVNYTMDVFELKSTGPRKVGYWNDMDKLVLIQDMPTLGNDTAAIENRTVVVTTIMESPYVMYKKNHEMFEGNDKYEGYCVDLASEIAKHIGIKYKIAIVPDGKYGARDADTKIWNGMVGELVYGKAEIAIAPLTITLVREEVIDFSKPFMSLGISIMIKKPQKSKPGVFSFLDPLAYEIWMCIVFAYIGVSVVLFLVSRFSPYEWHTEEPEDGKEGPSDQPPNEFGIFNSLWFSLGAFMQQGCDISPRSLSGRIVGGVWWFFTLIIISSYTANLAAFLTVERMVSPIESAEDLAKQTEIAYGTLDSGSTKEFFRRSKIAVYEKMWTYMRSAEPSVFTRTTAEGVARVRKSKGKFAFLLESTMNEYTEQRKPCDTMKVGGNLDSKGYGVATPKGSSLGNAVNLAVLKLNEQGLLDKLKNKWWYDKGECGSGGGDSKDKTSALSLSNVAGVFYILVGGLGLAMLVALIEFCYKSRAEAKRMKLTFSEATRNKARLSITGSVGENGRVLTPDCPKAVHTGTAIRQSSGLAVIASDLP
Glutamate receptor 4 (Rattus norvegicus), sequence (P19493 whole entry): as above
Glutamate receptor ionotropic, kainate 2 (Rattus norvegicus), sequence (P42260 whole entry): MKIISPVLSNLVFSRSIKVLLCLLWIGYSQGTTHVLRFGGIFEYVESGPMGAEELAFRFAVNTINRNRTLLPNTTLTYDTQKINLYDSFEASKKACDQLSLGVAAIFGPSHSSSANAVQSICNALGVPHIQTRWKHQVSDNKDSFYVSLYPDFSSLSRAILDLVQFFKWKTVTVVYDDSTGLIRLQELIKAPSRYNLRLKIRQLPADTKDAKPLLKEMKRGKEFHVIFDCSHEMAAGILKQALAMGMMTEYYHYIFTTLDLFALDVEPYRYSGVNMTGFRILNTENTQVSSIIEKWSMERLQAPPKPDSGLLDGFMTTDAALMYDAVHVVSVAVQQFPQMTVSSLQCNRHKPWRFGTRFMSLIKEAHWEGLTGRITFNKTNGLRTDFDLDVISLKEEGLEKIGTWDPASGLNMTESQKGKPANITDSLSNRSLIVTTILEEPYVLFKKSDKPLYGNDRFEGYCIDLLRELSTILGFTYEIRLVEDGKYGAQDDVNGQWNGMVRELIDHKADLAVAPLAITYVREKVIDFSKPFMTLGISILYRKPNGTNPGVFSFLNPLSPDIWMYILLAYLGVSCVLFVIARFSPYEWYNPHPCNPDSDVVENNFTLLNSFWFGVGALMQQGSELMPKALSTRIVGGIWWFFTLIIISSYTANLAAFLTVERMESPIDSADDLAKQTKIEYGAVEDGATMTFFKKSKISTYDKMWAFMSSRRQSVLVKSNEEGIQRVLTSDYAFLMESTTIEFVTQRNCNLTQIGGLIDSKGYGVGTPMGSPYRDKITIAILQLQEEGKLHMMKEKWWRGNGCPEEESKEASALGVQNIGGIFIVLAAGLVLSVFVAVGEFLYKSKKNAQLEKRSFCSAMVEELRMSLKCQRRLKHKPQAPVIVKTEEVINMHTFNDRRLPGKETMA
Glutamate receptor ionotropic, kainate 3 (Rattus norvegicus), sequence (P42264 whole entry): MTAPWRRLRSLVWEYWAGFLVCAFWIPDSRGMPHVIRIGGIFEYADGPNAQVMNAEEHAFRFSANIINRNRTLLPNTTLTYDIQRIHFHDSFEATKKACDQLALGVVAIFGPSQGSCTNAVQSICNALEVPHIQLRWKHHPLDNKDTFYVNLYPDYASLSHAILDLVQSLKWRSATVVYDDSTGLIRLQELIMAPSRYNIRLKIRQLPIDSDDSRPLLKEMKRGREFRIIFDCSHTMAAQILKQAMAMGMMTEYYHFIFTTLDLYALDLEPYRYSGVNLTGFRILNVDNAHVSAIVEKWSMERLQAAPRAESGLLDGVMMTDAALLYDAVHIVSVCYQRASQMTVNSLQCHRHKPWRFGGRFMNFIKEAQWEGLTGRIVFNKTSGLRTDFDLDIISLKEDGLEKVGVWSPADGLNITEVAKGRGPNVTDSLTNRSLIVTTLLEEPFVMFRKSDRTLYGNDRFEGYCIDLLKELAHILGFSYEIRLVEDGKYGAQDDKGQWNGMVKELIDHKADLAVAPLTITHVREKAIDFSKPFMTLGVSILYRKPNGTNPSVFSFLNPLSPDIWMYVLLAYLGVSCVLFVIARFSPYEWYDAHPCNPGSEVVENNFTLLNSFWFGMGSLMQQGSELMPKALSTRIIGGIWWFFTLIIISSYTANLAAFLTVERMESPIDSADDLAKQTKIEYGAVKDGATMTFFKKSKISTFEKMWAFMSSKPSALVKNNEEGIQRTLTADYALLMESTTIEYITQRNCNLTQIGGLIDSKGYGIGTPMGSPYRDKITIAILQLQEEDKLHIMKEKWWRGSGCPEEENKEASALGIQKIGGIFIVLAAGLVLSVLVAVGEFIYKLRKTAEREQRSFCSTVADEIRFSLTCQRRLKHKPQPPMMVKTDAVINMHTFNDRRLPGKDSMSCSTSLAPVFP
Glutamate receptor ionotropic, kainate 1, sequence (P22756 whole entry): as the sequence (P22756 whole entry) above
Glutamate receptor ionotropic, kainate 2, sequence (P42260 whole entry): as the sequence (P42260 whole entry) above
Glutamate receptor ionotropic, kainate 3, sequence (P42264 whole entry): as the sequence (P42264 whole entry) above

Compound `O=C(O)C[C@@H]1[C@@H](C(=O)O)NC[C@@H]1n1nncc1-c1ccccn1` has a Ki [1] of 0.258 µM, a Ki [2] of 11.5 µM and a Ki [3] of 3.75 µM. The Ki [4] was 7.76 µM.

For `O=C(O)CCCc1cnnn1[C@H]1CN[C@H](C(=O)O)[C@H]1CC(=O)O`, the IC50 [5] was 2.3 µM, the Activity [6] was 90% and the Ki [1] was 0.483 µM. For the same compound, the Ki [2] was 10.8 µM, the Ki [3] was 6.1 µM and the Activity [7] was 86%. It also gave a Ki [4] of 7.79 µM.

With `O=C(O)C[C@@H]1[C@@H](C(=O)O)NC[C@@H]1c1ccc(C(=O)O)[nH]c1=O` the IC50 (Glutamate receptor 4 [8]) was 0.06 µM and the IC50 [9] was 0.33 µM.

In the case of `C/C(=C\C=C\[C@@H](C)C(=O)O)[C@H]1CN[C@H](C(=O)O)[C@H]1CC(=O)O` [DOMORIC ACID], the IC50 (Glutamate receptor 4 [10]) is reported as 12 µM and the IC50 [11] is reported as 0.94 µM.

With `CCc1ccc(-c2cnnn2[C@H]2CN[C@H](C(=O)O)[C@H]2CC(=O)O)cc1` the Activity [12] was 83%, the Activity [13] was 45% and the Activity [14] was 95%. It also gave an Activity [15] of 92%.

For `O=C(O)C[C@@H]1[C@@H](C(=O)O)NC[C@@H]1n1nncc1CO`, the IC50 [5] was 22 µM, the Activity [12] was 84% and the Activity [6] was 102%. For the same compound, the Ki [1] was 7.97 µM, the Activity [14] was 94% and the Activity [15] was 76%. For the same compound, the Activity [7] was 86%.

Work on `O=C(O)C[C@@H]1[C@@H](C(=O)O)NC[C@@H]1n1nncc1-c1cccc(F)c1` yielded an Activity [12] of 58%, a Ki [1] of 1.76 µM and an Activity [14] of 60%. The Activity [15] was 76%.

In the case of `O=C(O)C[C@@H]1[C@@H](C(=O)O)NC[C@@H]1c1ccccc1O`, the IC50 (Glutamate receptor 4 [8]) is reported as 0.13 µM and the IC50 [9] is reported as 0.058 µM.

Work on `COc1cccc(-c2cnnn2[C@H]2CN[C@H](C(=O)O)[C@H]2CC(=O)O)c1` yielded an Activity [12] of 74%, a Ki [1] of 1.02 µM and an Activity [14] of 88%. For the same compound, the Activity [15] was 89%.

In the case of `C/C(=C/CC[C@@H](C)C(=O)O)[C@H]1CN[C@H](C(=O)O)[C@H]1CC(=O)O`, the IC50 (Glutamate receptor 4 [10]) is reported as 3.6 µM and the IC50 [11] is reported as 0.009 µM.

For `O=C(O)C[C@@H]1[C@@H](C(=O)O)NC[C@@H]1n1nncc1-c1cccnc1`, the Activity [12] was 80%, the Activity [13] was 47% and the Activity [14] was 98%. It also gave an Activity [15] of 92%.

`Nc1cccc(-c2cn([C@H]3CN[C@H](C(=O)O)[C@H]3CC(=O)O)nn2)c1` gave an Activity [12] of 93%, a Ki [1] of 3.25 µM and an Activity [14] of 97%. The Activity [15] was 102%.

For `O=C(O)C[C@@H]1[C@@H](C(=O)O)NC[C@@H]1n1nncc1CN1CCS(=O)(=O)CC1`, the Activity [12] was 91%, the Activity [13] was 94% and the Activity [14] was 97%. It also gave an Activity [15] of 80%.

With `O=C(O)C[C@@H]1[C@@H](C(=O)O)NC[C@@H]1n1nncc1Cc1ccccc1` the Activity [12] was 94%, the Activity [6] was 87% and the Ki [1] was 11.1 µM. It also gave an Activity [14] of 99%, an Activity (Rattus norvegicus) of 79% and an Activity [15] of 92%. The Activity [7] was 86%.

For `C[C@H](CCC[C@@H](C)[C@H]1CN[C@H](C(=O)O)[C@H]1CC(=O)O)C(=O)O`, the IC50 (Glutamate receptor 4 [10]) was > 100 µM and the IC50 [11] was 27 µM.

`O=C(O)C[C@@H]1[C@@H](C(=O)O)NC[C@@H]1n1nncc1-c1ccc(C(F)(F)F)cc1` showed an Activity [12] of 85%, an Activity [13] of 62% and an Activity [14] of 95%. For the same compound, the Activity [15] was 103%.

For `O=C(O)C[C@@H]1[C@@H](C(=O)O)NC[C@@H]1n1nncc1C(=O)O`, the Activity [12] was 79%, the Activity [6] was 66% and the Activity [13] was 89%. The Activity [14] was 79%, the Activity (Rattus norvegicus) was 80% and the Activity [15] was 85%. It also gave an Activity [7] of 85%.

Compound `C/C(=C/C=C/[C@H](C)C(=O)O)[C@H]1CN[C@H](C(=O)O)[C@H]1CC(=O)O` has an IC50 (Glutamate receptor 4 [10]) of 5.7 µM and an IC50 [11] of 0.028 µM.

`O=C(O)C[C@@H]1[C@@H](C(=O)O)NC[C@@H]1n1nncc1CCc1ccccc1` showed an IC50 [5] of 35 µM, an Activity [12] of 90% and an Activity [6] of 98%. For the same compound, the Ki [1] was 5.57 µM, the Activity [14] was 94% and the Activity [15] was 97%. It also gave an Activity [7] of 98%.

`O=C(O)C[C@@H]1[C@@H](C(=O)O)NC[C@@H]1n1nncc1-c1ccc(F)cc1F` showed an Activity [12] of 90%, a Ki [1] of 5.35 µM and an Activity [14] of 96%. It also gave an Activity [15] of 73%.

With `C=C(C)[C@H]1CN[C@H](C(=O)O)[C@H]1CC(=O)O` [KAINIC ACID] the IC50 (Glutamate receptor 4 [8]) was 1.9 µM and the IC50 [9] was 0.012 µM.

`C/C(=C/C=C\[C@@H](C)C(=O)O)[C@H]1CN[C@H](C(=O)O)[C@H]1CC(=O)O` showed an IC50 (Glutamate receptor 4 [10]) of 17 µM and an IC50 [11] of 0.028 µM.
